Assay results: article PMC6283615, “Anilinoquinoline based inhibitors of trypanosomatid proliferation” (PLoS Neglected Tropical Diseases, 2018)
Values after ≈ are worked out from the molar mass of the structure shown.

Key:
[1] = test system: T. b. brucei (strain 427); assay: T. b. brucei proliferation assay (PrestoBlue, 48 h); type: cell-based, Trypanosoma brucei brucei
Experimental: The assay was performed following a previously reported procedure. Briefly, in a 96-well plate, compounds were added in triplicates at 50 μM and in serial dilutions 1:2 in HMI-9 medium. To each well, 100 μL of 2.5×10^3 T. b. brucei (strain 427, received as a gift from Dr. C. C. Wang at UCSF) in HMI-9 medium was were added and incubated at 37°C, 5% CO2 for 48 h. Following incubation, 20 μL of PrestoBlue were added to each well and incubated for additional 4 h. Fluorescence was read at 530 nm excitation and 590 nm emission.

[2] = test system: T. cruzi amastigote (Tulahuen strain expressing β-galactosidase); assay: Intracellular T. cruzi assay in 3T3 cells (beta-galactosidase, 96 h); type: cell-based, Trypanosoma cruzi; conditions: intracellular in 3T3 cells, 96 h; read-out: T. cruzi amastigote EC50
Experimental: In a 96-well plate, 5×10^4 3T3 cells in DMEM without phenol red supplemented with 2% FBS were added to each well. Cells were incubated for 2 h to allow for attachment. Compounds were added in triplicates at 50 μM and in serial dilutions 1:2. To each well, 5×10^4 T. cruzi trypomastigotes (Tulahuen strain expressing β-galactosidase) were added and incubated at 37°C, 5% CO2 for 96 h. Following incubation, 50 μL of 500 μM chlorophenol Red-β-D-galactopyranoside (CPRG) in phosphate-buffered saline with 0.5% NP40 was added to each well and incubated at 37°C, 5% CO2 for 4 h. Absorbance was read at 590–595 nm.

[3] = target: L. major amastigote; assay: L. major intracellular amastigote luciferase assay in RAW 264.7 macrophages; type: cell-based, Leishmania major; conditions: intracellular amastigotes in RAW 264.7 macrophages, 96 h
Experimental: Amastigote assays were performed using pLEXSY-hyg2-luciferase L. major transfected promastigotes and the murine RAW 264.7 macrophage cell line (ATCC TIB-71, Manassas, VA). Briefly, luciferase-expressing promastigotes of each Leishmania species were generated by adding a luciferase encoding region to the pLEXSY-hyg2 vector (Jena Biosciences, Germany) as described. One μg of the linearized pLEXSY-hyg2-luciferase vector were electroporated (480 V, 13 Ω, and 500 μF) into 4×10^7 Leishmania promastigotes. Selection for stable promastigote transfectants was carried out using hygromycin B (100 μg/mL). RAW 264.7 macrophages were maintained in growth medium (Dulbecco’s Modified Eagle’s Medium supplemented with heat-inactivated 10% FBS (Life Technologies)). Cells were harvested and resuspended in growth medium at 2.0×10^5 cells/mL, and 1×10^4 cells/well were dispensed (final volume 50 μL) in each well of a 384 well tissue-culture treated white plate using a EVO Freedom liquid handling system (Tecan, Durham, NC). Plates were incubated at 37°C in 5% CO2 for 24 h after which the culture medium was removed from each well using the EVO Freedom liquid handler. Metacyclic phase pLEXSY-hyg2-luciferase-Leishmania promastigotes (MOI = 1:10 L. major) were added to each assay plate well and allowed to infect the RAW 264.7 macrophages. After an overnight incubation, the growth medium was aspirated and each well was washed three times with 40 μL of fresh growth medium to remove non-internalized promastigotes. After the third wash, 69.2 μL of growth medium was added to each well. Compound dilutions (final concentration ranges 0.5–10,000 ng/mL) were generated and dispensed using the liquid handling system. Compound treated plates were incubated at 37°C in 5% CO2 for 96 h. After incubation, 7.5 μL of a luciferin solution (Caliper Life Science, Waltham, MA) diluted to 150 μg/mL was added to each well, and the plates were incubated for 30 min at 37°C in the dark. Data were captured using an Infinite M200 plate reader (Tecan). EC50s were generated for each concentration response test using GraphPad Prism software 6.0.

[4] = test system: HepG2 cells; assay: Drug toxicity to HepG2 cells (MTT, 48 h); type: cell-based, human; conditions: tested concentration ranges based on compound solubility
Experimental: HepG2 cells were cultured in complete Minimal Essential Medium prepared by supplementing MEM with 0.19% sodium bicarbonate, 10% heat inactivated FBS, 2 mM L-glutamine, 0.1 mM MEM non-essential amino, 0.009 mg/mL insulin, 1.76 mg/mL bovine serum albumin, 20 units/mL penicillin–streptomycin, and 0.05 mg/mL gentamycin. HepG2 cells cultured in complete MEM were first washed with 1× Hank’s Balanced Salt Solution (Invitrogen #14175095), trypsinized using a 0.25% trypsin/EDTA solution, assessed for viability using trypan blue, and resuspended at 250,000 cells/mL. Using a Tecan EVO Freedom robot, 38.3 μL of cell suspension were added to each well of clear, cell culture-treated 384-well microtiter plates for a final concentration of 9570 liver cells per well, and plated cells were incubated overnight in 5% CO2 at 37°C. Drug plates were prepared with the Tecan EVO Freedom using sterile 96 well plates containing twelve duplicate 1.6-fold serial dilutions of each test compound suspended in DMSO. 4.25 μL of diluted test compound was then added to the 38.3 μL of media in each well providing a […] final dilution of compound. Compounds were tested from a range of 57 ng/mL to 10,000 ng/mL for all assays. Mefloquine was used as a plate control for all assays with a concentration ranging from 113 ng/mL to 20,000 ng/mL. After a 48 h incubation period, 8 μL of a 1.5 mg/mL solution of MTT diluted in complete MEM media was added to each well. All plates were subsequently incubated in the dark for 1 h at room temperature. After incubation, the media and drugs in each well was removed by shaking the plate over sink, and the plates were left to dry in a fume hood for 15 mins. Next, 30 μL of isopropanol acidified by addition of HCl at a final concentration of 0.36% was added to dissolve the formazan dye crystals created by reduction of MTT. Plates are put on a 3-D rotator for 15–30 mins. Absorbance was determined in all wells using a Tecan iControl 1.6 Infinite plate reader.

[5] = test system: NIH/3T3 cells; assay: Drug toxicity to 3T3 cells (Alamar Blue, 96 h); type: cell-based
Experimental: In a 96-well plate, 5×10^4 NIH/3T3 (ATCC CRL-1658) cells (purchased from ATCC) in DMEM without phenol red supplemented with 2% FBS were added to each well. Cells were incubated for 2 h to allow for attachment. Compounds were added in triplicates at 200 μM and in serial dilutions 1:2 and incubated at 37°C, 5% CO2 for 96 h. […] Following incubation, 10 μL of Alamar Blue (ThermoFisher) were added to each well and cells incubated at 37°C, 5% CO2 for 4 h. Absorbance was read at 590–595 nm.

[6] = Human liver microsome intrinsic clearance; type: in vitro ADME
[7] = LogD7.4; type: physicochemical; conditions: pH 7.4
[8] = Aqueous solubility; type: physicochemical
[9] = Rat hepatocyte intrinsic clearance; type: in vitro ADME
[10] = Human plasma protein binding; type: in vitro ADME

SMILES	EC50 [1]	EC50 [2]	EC50 [3]	HepG2 TC50 [4]	3T3 TC50 [5]	Human Liver Microsome CLint [6]	LogD7.4 [7]	solubility [8]	Rat Hepatocyte CLint [9]	Human PPB [10]
Cc1nnc(Nc2ccc3c(Nc4cnccn4)ccnc3c2)nc1C [NEU-2151]	2.3 µM	> 50 µM	26 µM	22 µM	> 100 µM	–	–	–	–	–
c1cnc(Nc2ccnc3cc(Nc4nccnn4)ccc23)cn1 [NEU-2145]	4.7 µM	> 50 µM	28 µM	11 µM	> 50 µM	42 µL/min/mg	2.1	3 µM (≈ 0.949 µg/mL)	> 300 μL/min/10^6 cells	75%
COc1ccc(Nc2ccnc3cc(Nc4ccnc(N5CCN(C)CC5)n4)ccc23)cc1Cl [NEU-2093]	0.34 µM	8.1 µM	4.6 µM	4.7 µM	15 µM	45 µL/min/mg	–	–	2.3 μL/min/10^6 cells	–
CN1CCN(S(=O)(=O)c2ccc(-c3ccc4c(Nc5ncc(Cl)cn5)ccnc4c3)cc2)CC1 [NEU-1025]	1.5 µM	8.8 µM	8.7 µM	31 µM	11 µM	–	4.1	4.8 µM (≈ 2.38 µg/mL)	–	99%
Cc1cc(Nc2ccc3c(Nc4cnccn4)ccnc3c2)on1 [NEU-2150]	29 µM	21 µM	31 µM	48 µM	> 100 µM	–	–	–	–	–
CN1CCN(S(=O)(=O)c2ccc(-c3ccc4c(Nc5cnc(C#N)cn5)ccnc4c3)cc2)CC1 [NEU-1024]	3 µM	> 50 µM	19 µM	31 µM	> 100 µM	–	3.7	< 1 µM	–	97%
CN1CCN(S(=O)(=O)c2ccc(-c3ccc4c(Nc5cccnc5)ccnc4c3)cc2)CC1 [NEU-1019]	5.4 µM	> 50 µM	22 µM	36 µM	> 100 µM	–	2	175 µM (≈ 80.4 µg/mL)	–	85%
Cc1n[nH]c(C)c1Nc1ccc2c(Nc3cnccn3)ccnc2c1 [NEU-2146]	17 µM	> 50 µM	27 µM	40 µM	> 100 µM	8 µL/min/mg	1.8	–	120 μL/min/10^6 cells	68%
Cc1nnc(Nc2ccnc3cc(-c4ccc(S(=O)(=O)N5CCN(C)CC5)cc4)ccc23)nc1C [NEU-1028]	> 50 µM	> 50 µM	4 µM	6.4 µM	> 100 µM	–	3.4	1.5 µM (≈ 0.734 µg/mL)	–	93%
CN1CCN(S(=O)(=O)c2ccc(-c3ccc4c(Nc5ccc6[nH]nnc6c5)ccnc4c3)cc2)CC1 [NEU-1018]	> 50 µM	> 50 µM	17 µM	28 µM	> 100 µM	–	3.4	< 1 µM	–	98%
Cn1cc(Nc2ccc3c(Nc4cnccn4)ccnc3c2)cn1 [NEU-2143]	14 µM	> 50 µM	28 µM	29 µM	> 50 µM	10 µL/min/mg	1.9	–	66 μL/min/10^6 cells	63%
c1coc(-c2ccc3c(Nc4cnccn4)ccnc3c2)c1 [NEU-2131]	4.8 µM	4.7 µM	35 µM	53 µM	> 100 µM	160 µL/min/mg	3.8	6 µM (≈ 1.73 µg/mL)	–	98%
Cc1cc(Nc2ccnc3cc(-c4ccc(S(=O)(=O)N5CCN(C)CC5)cc4)ccc23)sn1 [NEU-1023]	0.6 µM	25 µM	8.4 µM	35 µM	> 100 µM	–	4.2	< 1 µM	–	99%
Cn1cc(-c2ccc3c(Nc4cnccn4)ccnc3c2)cn1 [NEU-2129]	3.3 µM	2.4 µM	33 µM	40 µM	37 µM	25 µL/min/mg	2.9	4 µM (≈ 1.21 µg/mL)	290 μL/min/10^6 cells	–
Cc1cc(Nc2ccc3c(Nc4cnccn4)ccnc3c2)sn1 [NEU-2148]	7.6 µM	> 50 µM	4.7 µM	36 µM	> 100 µM	28 µL/min/mg	3.5	2 µM (≈ 0.669 µg/mL)	9 μL/min/10^6 cells	–
CN1CCN(S(=O)(=O)c2ccc(-c3ccc4c(Nc5ccnnc5)ccnc4c3)cc2)CC1 [NEU-1020]	> 50 µM	> 50 µM	22 µM	36 µM	> 100 µM	–	-0.5	> 1000 µM	–	57%
COc1ccc(Nc2ccnc3cc(-c4cnn(C)c4)ccc23)cc1Cl [NEU-2130]	2.6 µM	1.9 µM	29 µM	44 µM	> 100 µM	–	–	–	–	–
